In US10030064B2, “Mammalian cell culture processes for protein production” (priority 2009, dated 2018):

Legend:
Assay type in all cases: cell-based, Chinese hamster
CHO cells [1] = assay: Fed-batch 5-L bioreactor CHO culture: sialic acid content and N-linked sialylated species fraction; details: 1 μM DEX bolus addition
Description: Bioreactor experiments were performed in 5-L bioreactors (Sartorius AG, Goettingen, Germany) with initial working volumes of 1.5 L. Agitation, pH, and dissolved oxygen were controlled at 150 rpm, 7.05, and 50% air saturation, respectively. Temperature was initially controlled at 37° C., but was shifted to a lower temperature during the culture to extend culture viability. The bioreactors were operated in fed-batch mode and were fed daily starting on day 3 with the proprietary feed medium to maintain adequate concentrations for glucose and other nutrients. Samples were taken during the cell culture process and analyzed for cell density, cell viability, substrates and metabolites.
The sialic acid to recombinant protein molar ratio was calculated by determining the sialic acid and recombinant protein concentrations. Sialic acid (SA), including N-Acetylneuraminic (Neu5Ac) and N-glycolylneuraminic acid (Neu5Gc), was released by partial acid hydrolysis. The derivatives were then separated by reversed-phase HPLC to determine sialic acid content. The protein concentrations were determined by UV absorbance at 280 nm. Sialic acid content is reported as molar ratios, which is the total moles of Neu5Ac and Neu5Gc per mole of recombinant glycoprotein. Sialic acid contents are reported as normalized values, which are the actual values divided by an arbitrary value. The same divisor was used to normalize all sialic acid content data in the studies reported here.
High-pH anion-exchange chromatography with pulsed amperometric detection (HPAEC-PAD) was used for the profiling of N-linked oligosaccharides (Base and Spellman 1990; Townsend and Hardy 1991) to provide information on site-specific N-linked glycosylation. N-linked oligosaccharides were cleaved from protein and separated on HPAEC-PAD into four domains based on the amount of sialic acid present. Domain I represents the asialo species. Domains II, III, and IV are sialylated species and represent monosialylated, disialylated, and tri- and tetrasialylated species, respectively. N-linked sialylated species fraction is reported as the percentage of N-linked sialylated species within the total N-linked oligosaccharides species, which includes both asialo and sialylated species. N-linked sialylated species fractions are reported as normalized values, which are the actual values divided by an arbitrary value. The same divisor was used to normalize all N-linked sialylated species fraction data in the studies reported here.
The bioreactors were operated as described in the methods section.

CHO cells [2] = assay: Shake flask CHO culture in serum free medium: viable cell density, viability, growth rate, productivity (Example 3)
Description: The CHO cell line used in this study was subcloned from DG44 parental cells and cultured in a proprietary chemically-defined growth medium.
The experiments were carried out in 250-mL shake flasks (VWR international) with starting volumes of 100 mL and initial cell densities of 6×10^5 cells/mL. The cultures were placed on a shaker platform (VWR international) at 150 rpm and maintained at 37° C. and 6% CO2 for ten days. The cultures were sampled daily and the pH adjustment using 1M sodium carbonate, and fed with glucose and glutamine every two days in order to maintain them at certain levels. Cell density and viability were measured off-line a Bioprofile Analyzer 400 (Nova Biomedical Corporation, Waltham, Mass.).
The eluted protein was quantified using a 10-level standard curve.

[3] = tested on: CHO cells secreting an IgG-fusion protein; assay: Shake flask CHO culture: SEC-HPLC of high molecular weight (HMW) species in secreted IgG-fusion protein
Description: The CHO cell line used in this study was originally subcloned from DG44 parental cells and cultured in a protein-free proprietary growth medium. The host cells were genetically engineered to secrete an IgG-fusion protein under the control of CMV promoter.
The experiments were carried out in 250-mL shake flasks (VWR international) with starting volumes of 100 mL and initial cell densities of 6×10^5 cells/mL. Shake flasks were placed on a shaker platform (VWR international) at 150 rpm rotating speed. Cells were cultured under standard humidified condition at 37° C. and 6% CO2, for a ten-day duration with daily pH adjustment using 1M sodium carbonate, and fed with glucose and glutamine every two days in order to maintain them at certain level. Cell density, cell viability and substrates/metabolites were offline-analyzed by an automated cell counting system Cedex (Innovatis AG, Bielefeld, Germany) and a Bioprofile Analyzer 400 (Nova Biomedical Corporation, Waltham, Mass.). Supernatant from each culture harvest was collected for SEC analysis.
The main components of HMW species were dimers and trimers formed covalently or non-covalently and categorically considered to be protein aggregates.

[4] = 10 μM DEX added two days after inoculation
[5] = treatment concentration 0.1 μM, added two days after inoculation
[6] = treatment concentration 1 μM, added two days after inoculation
[7] = treatment concentration 10 μM, added two days after inoculation

C[C@@H]1C[C@H]2[C@@H]3CCC4=CC(=O)C=C[C@]4(C)[C@@]3(F)[C@@H](O)C[C@]2(C)[C@@]1(O)C(=O)CO [DEX, dexamethasone]
change of sialylated fraction between days 8 to 14 (CHO cells [1]): −7.7% | change of total sialic acid content between days 8 to 14 (CHO cells [1]): −7.8% | normalized N-linked sialylated species fraction (CHO cells [1]; day 8): 97.7±0.9 | normalized total sialic acid content (CHO cells [1]; day 8): 17.9±0.1 | increase of N-linked sialylated species fraction vs control (CHO cells [1]; day 14): 15.8% | increase of total sialic acid content vs control (CHO cells [1]; day 14): 16.2% | normalized N-linked sialylated species fraction (CHO cells [1]; day 14): 90.2±1.3 | normalized total sialic acid content (CHO cells [1]; day 14): 16.5±0.1 | final cell viability (day 10) (CHO cells [2]; 0.01 μM DEX added two days after inoculation): 53.1% | percent increase of cell viability induced by DEX (CHO cells [2]; 0.1 μM DEX, with 1 μM RU-486): 4.7% | percent increase of cell viability induced by DEX (CHO cells [2]; 0.1 μM DEX, without RU-486): 30.5% | maximum specific productivity (normalized) (CHO cells [2]; 1 μM DEX added day 2): 7.0±0.6 ×10^−9 | normalized volumetric productivity (CHO cells [2]; 1 μM DEX added day 2, same for all cultures): 6.5 | reduction in cell growth rates compared to control (CHO cells [2]; 1 μM DEX added day 2, the day after DEX addition): ~30% | viability on day 10 (CHO cells [2]; 1 μM DEX added on day 0): 63% | viability on day 10 (CHO cells [2]; 1 μM DEX added on day 2): 68% | viability on day 10 (CHO cells [2]; 1 μM DEX added on day 4): 72% | viability on day 10 (CHO cells [2]; 1 μM DEX added on day 6): 74% | percent increase of cell viability induced by DEX (CHO cells [2]; 1 μM DEX, with 1 μM RU-486): 5.7% | percent increase of cell viability induced by DEX (CHO cells [2]; 1 μM DEX, without RU-486): 32.6% | Peak VCD (CHO cells [2]; [4]): 6.5 ×10^6 cell/mL | final cell viability (day 10) (CHO cells [2]; [4]): 64.0% | Final VCD (CHO cells [2]; [5]): 7.64 ×10^6 cells/mL | Peak VCD (CHO cells [2]; [5]): 7.99 ×10^6 cells/mL | Viability (final, day 10) (CHO cells [2]; [5]): 72.3% | Final VCD (CHO cells [2]; [6]): 8.40 ×10^6 cells/mL | Peak VCD (CHO cells [2]; [6]): 9.02 ×10^6 cells/mL | Viability (final, day 10) (CHO cells [2]; [6]): 75.8% | Final VCD (CHO cells [2]; [7]): 7.38 ×10^6 cells/mL | Peak VCD (CHO cells [2]; [7]): 7.49 ×10^6 cells/mL | Viability (final, day 10) (CHO cells [2]; [7]): 82.3% | decrease of percentage of HMW species ([3]; 0.1 μM DEX alone): approximately 17% | reduction of protein aggregation (percentage of HMW species) ([3]; 1 μM DEX added day 2, supernatant day 10, vs control): 15%
